Assay results reported in PubChem BioAssay (NCI).
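Method: 48-hour compound exposure of cells in 96-well plates, five concentrations, linear interpolation of endpoints. The concentration for 50% growth inhibition is given as GI50. TGI is the concentration that stops growth completely.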

Assays:
Assay in all cases: inhibition of tumour cell growth, NCI panel, 48 h
NCI-H226 lung = tested on: NCI-H226 lung
HOP-62 NSCLC = tested on: HOP-62 NSCLC
EKVX NSCLC = tested on: EKVX NSCLC
SW-620 colon = tested on: SW-620 colon
ACHN renal = tested on: ACHN renal
BT-549 breast = tested on: BT-549 breast
HL-60(TB) leukemia = tested on: HL-60(TB) leukemia
M14 melanoma = tested on: M14 melanoma

| SMILES | GI50 (NCI-H226 lung) | TGI (NCI-H226 lung) | GI50 (HOP-62 NSCLC) | TGI (HOP-62 NSCLC) | GI50 (EKVX NSCLC) | TGI (EKVX NSCLC) | GI50 (SW-620 colon) | TGI (SW-620 colon) | GI50 (ACHN renal) | TGI (ACHN renal) | GI50 (BT-549 breast) | TGI (BT-549 breast) | GI50 (HL-60(TB) leukemia) | TGI (HL-60(TB) leukemia) | GI50 (M14 melanoma) | TGI (M14 melanoma) |
| --- | --- | --- | --- | --- | --- | --- | --- | --- | --- | --- | --- | --- | --- | --- | --- | --- |
| COc1cc2c3c(n(CCCN)c(=O)c2cc1OC)-c1ccc(N)cc1C3=O | 2850 nM | 14.5 µM | 1550 nM | 4.92 µM | 9.15 µM | > 30.9 µM | 607 nM | 11.7 µM | 5.9 µM | 37.8 µM | 1970 nM | 8.85 µM | 461 nM | 4.91 µM | 2210 nM | 13.7 µM |
| O=C1[C@H](Cc2ccc(O)cc2)N2C(=O)CCN(C(=O)NCc3ccccc3)[C@H]2CN1Cc1cccc2ccccc12 | 1990 nM | 21.4 µM | 3220 nM | 19.1 µM | 3.81 µM | > 100 µM | 4490 nM | > 55 µM | 4.73 µM | 57.7 µM | 3010 nM | 22.6 µM | 4840 nM | 27.3 µM | 3610 nM | 20.1 µM |
| CNCc1cccc2c1OCCOCCOCCNS(=O)(=O)c1ccc(cc1)-c1cnc(N)c(n1)C(=O)N2 | 2210 nM | 8.09 µM | 1270 nM | 2.96 µM | 2.83 µM | 11.2 µM | 875 nM | 3.13 µM | 2.78 µM | 11.7 µM | 1270 nM | 8.14 µM | 452 nM | 1.89 µM | 1310 nM | 2.71 µM |
| CN(C)c1ccc(/C=N/N=C(\C#N)[S][Sn]([Cl])([c]2ccccc2)[c]2ccccc2)cc1 | 1820 nM | 3.46 µM | 2630 nM | 6.02 µM | 1.67 µM | 4.12 µM | 853 nM | 2.45 µM | 1.72 µM | 3.2 µM | 1570 nM | 3.04 µM | 548 nM | 5.16 µM | 1720 nM | 3.38 µM |
| CCCCCCCCCCCCOC1C(C(COC2OC(C(O)CO)C3OC(C)(C)OC23)OC(=O)Nc2ccccc2)OC2OC(C)(C)OC21 (centres undefined) | 11800 nM | 26.4 µM | 9700 nM | 22.2 µM | 9.94 µM | 22.2 µM | 9210 nM | 27.2 µM | 4.82 µM | 16.3 µM | 10500 nM | 23.8 µM | 484 nM | 1.6 µM | 5120 nM | 17 µM |
| O=C1NC(c2ccccc2Cl)Nc2ccccc21 (centres undefined) | – | > 84.6 µM | – | > 100 µM | – | > 100 µM | – | > 30.1 µM | – | > 100 µM | – | > 100 µM | – | 16.4 µM | – | > 100 µM |
| C/C(=C\c1csc(C)n1)[C@@H]1C[C@@H]2O[C@]2(C)CCC[C@H](C)[C@H](O)[C@@H](C)C(=O)C(C)(C)[C@@H](O)CC(=O)N1 | 0.388 nM | 0.000652 µM | 0.352 nM | 0.000508 µM | 0.000337 µM | 0.000626 µM | 0.16 nM | 0.00042 µM | 0.000324 µM | 0.000478 µM | 0.187 nM | 0.000416 µM | 0.083 nM | 0.000163 µM | 1.54 nM | 0.011 µM |
| COc1cc2c(cc1C)NC(=O)/C2=C\c1ccc(Oc2ccccc2)cc1 | 16700 nM | 32.6 µM | 16900 nM | 31 µM | 12.9 µM | 27 µM | 16100 nM | 32.5 µM | 15.6 µM | 29 µM | 14200 nM | 28.3 µM | 51.1 nM | 11.8 µM | 15100 nM | 29.2 µM |
| N#C[Se]CCN1C(=O)c2ccccc2C1=O | 1600 nM | 3.82 µM | 2170 nM | 6.45 µM | 2.88 µM | 10.3 µM | 2380 nM | 5.66 µM | 3.33 µM | 11.9 µM | 1660 nM | 3.53 µM | 2230 nM | 5.71 µM | 1210 nM | 3.8 µM |
| Cc1ccc(-c2nc([P+](c3ccccc3)(c3ccccc3)c3ccccc3)c(N3CCOCC3)o2)cc1 | 724 nM | 8.03 µM | 830 nM | 6.61 µM | 1.08 µM | 9.99 µM | 467 nM | 11.8 µM | 2.32 µM | 7.53 µM | 381 nM | 5.14 µM | 246 nM | 0.738 µM | 543 nM | 10.4 µM |
| CCCCCCCCCCN=C(N)c1ccc(N2CCN(c3ccc(C(N)=NCCCCCCCCCC)cc3)CC2)cc1 | 7720 nM | > 50 µM | 11300 nM | 29 µM | 4.44 µM | 21.1 µM | 2650 nM | > 50 µM | 15.7 µM | > 50 µM | 1690 nM | 5.04 µM | 2170 nM | > 50 µM | 18000 nM | > 50 µM |
| N#CC1=C(N)Oc2c(ccc3ccccc23)C1c1cc2ccccc2n2nnnc12 (centres undefined) | 3080 nM | > 100 µM | 812 nM | > 100 µM | 5.8 µM | > 100 µM | 467 nM | > 100 µM | 1.71 µM | > 100 µM | 1610 nM | > 100 µM | 260 nM | 16.7 µM | 948 nM | > 100 µM |
